ChEMBL document CHEMBL5058643, “Data for DCP probe BI-2081” (2022)

Key:
[1] = target: Androgen receptor (Homo sapiens) (UniProt P10275); test: ANDROGEN/H Eurofins SafetyScreen44 (BI); details: Compound concentration 10.0 uM
hERG (KCNH2) = hERG (KCNH2) (Homo sapiens, UniProt Q12809); test: HERG_DOFETILIDE Eurofins SafetyScreen44 (BI); set-up: mode of action inhibitor; details: probe [3H] Dofetilide, compound concentration 10 uM, read-out: % Ctrl
[2] = target: Voltage-dependent L-type calcium channel subunit alpha-1C (dihydropyridine site) (Rattus norvegicus, UniProt P22002); test: CA+/DHPSI/R Eurofins SafetyScreen44 (BI); set-up: mode of action inhibitor; details: rat brain, probe [3H](+)PN200-110, compound concentration 10 uM, read-out: % Ctrl
[3] = target: Adenosine receptor A2a (Homo sapiens) (UniProt P29274); test: A2A/H Eurofins SafetyScreen44 (BI); details: filed as antagonist, Compound concentration 10.0 uM
[4] = target: Potassium voltage-gated channel subfamily V member 1 (Rattus norvegicus) (UniProt P97557); test: K+/VOLT/RA Eurofins SafetyScreen44 (BI); details: Compound concentration 10.0 uM
Chain of Potassium voltage-gated channel subfamily V member 1 (Rattus norvegicus) (P97557 whole entry): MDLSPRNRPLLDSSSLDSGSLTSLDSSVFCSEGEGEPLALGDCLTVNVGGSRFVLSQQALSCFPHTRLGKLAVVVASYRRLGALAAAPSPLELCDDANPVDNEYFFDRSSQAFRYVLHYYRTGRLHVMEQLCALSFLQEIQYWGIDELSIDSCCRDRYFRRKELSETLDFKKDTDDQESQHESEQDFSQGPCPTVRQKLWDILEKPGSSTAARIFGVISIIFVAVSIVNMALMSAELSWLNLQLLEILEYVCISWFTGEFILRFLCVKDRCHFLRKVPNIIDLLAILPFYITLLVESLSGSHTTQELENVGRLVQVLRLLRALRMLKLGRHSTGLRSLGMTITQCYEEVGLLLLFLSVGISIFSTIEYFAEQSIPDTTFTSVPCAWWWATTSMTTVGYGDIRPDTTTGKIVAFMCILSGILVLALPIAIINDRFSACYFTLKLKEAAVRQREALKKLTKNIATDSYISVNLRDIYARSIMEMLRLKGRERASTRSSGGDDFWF

[5] = target: Beta-1 adrenergic receptor (Homo sapiens) (UniProt P08588); test: BETA1/HUM Eurofins SafetyScreen44 (BI); details: Compound concentration 10.0 uM
[6] = target: P2X purinoceptor (Oryctolagus cuniculus) (UniProt G1U3D6); test: P2X/RB Eurofins SafetyScreen44 (BI); details: Compound concentration 10.0 uM
Chain of P2X purinoceptor (Oryctolagus cuniculus) (G1U3D6 as listed by the source): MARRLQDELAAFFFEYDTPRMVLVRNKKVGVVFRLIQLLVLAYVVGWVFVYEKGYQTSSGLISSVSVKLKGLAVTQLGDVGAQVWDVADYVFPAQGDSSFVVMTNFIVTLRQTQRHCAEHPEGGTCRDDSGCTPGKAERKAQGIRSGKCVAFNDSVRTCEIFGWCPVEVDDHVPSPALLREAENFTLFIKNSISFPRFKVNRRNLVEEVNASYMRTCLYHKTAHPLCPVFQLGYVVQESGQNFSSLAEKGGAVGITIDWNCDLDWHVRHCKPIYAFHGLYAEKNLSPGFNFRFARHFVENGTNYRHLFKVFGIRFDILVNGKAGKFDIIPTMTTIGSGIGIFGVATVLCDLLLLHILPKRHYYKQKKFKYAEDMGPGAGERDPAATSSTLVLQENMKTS

[7] = target: Delta-type opioid receptor (Homo sapiens) (UniProt P41143); test: DELTA/HU Eurofins SafetyScreen44 (BI); details: Compound concentration 10.0 uM
Chain of Delta-type opioid receptor (Homo sapiens) (P41143 whole entry): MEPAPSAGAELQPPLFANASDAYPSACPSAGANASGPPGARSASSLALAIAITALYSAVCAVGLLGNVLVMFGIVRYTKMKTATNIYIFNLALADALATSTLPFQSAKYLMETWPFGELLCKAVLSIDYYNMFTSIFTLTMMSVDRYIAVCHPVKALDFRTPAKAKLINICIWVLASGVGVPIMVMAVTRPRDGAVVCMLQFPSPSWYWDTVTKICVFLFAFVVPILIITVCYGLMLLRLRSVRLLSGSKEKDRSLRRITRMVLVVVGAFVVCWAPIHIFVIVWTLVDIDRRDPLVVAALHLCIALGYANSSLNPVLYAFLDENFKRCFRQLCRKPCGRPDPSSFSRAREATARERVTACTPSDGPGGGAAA

[8] = target: D(4) dopamine receptor (Homo sapiens) (UniProt P21917); test: D4.2/H Eurofins SafetyScreen44 (BI); details: Compound concentration 10.0 uM
[9] = target: Muscarinic acetylcholine receptor M3 (Homo sapiens, UniProt P20309); test: M3/HU Eurofins SafetyScreen44 (BI)
Chain of Muscarinic acetylcholine receptor M3 (P20309 whole entry, looked up): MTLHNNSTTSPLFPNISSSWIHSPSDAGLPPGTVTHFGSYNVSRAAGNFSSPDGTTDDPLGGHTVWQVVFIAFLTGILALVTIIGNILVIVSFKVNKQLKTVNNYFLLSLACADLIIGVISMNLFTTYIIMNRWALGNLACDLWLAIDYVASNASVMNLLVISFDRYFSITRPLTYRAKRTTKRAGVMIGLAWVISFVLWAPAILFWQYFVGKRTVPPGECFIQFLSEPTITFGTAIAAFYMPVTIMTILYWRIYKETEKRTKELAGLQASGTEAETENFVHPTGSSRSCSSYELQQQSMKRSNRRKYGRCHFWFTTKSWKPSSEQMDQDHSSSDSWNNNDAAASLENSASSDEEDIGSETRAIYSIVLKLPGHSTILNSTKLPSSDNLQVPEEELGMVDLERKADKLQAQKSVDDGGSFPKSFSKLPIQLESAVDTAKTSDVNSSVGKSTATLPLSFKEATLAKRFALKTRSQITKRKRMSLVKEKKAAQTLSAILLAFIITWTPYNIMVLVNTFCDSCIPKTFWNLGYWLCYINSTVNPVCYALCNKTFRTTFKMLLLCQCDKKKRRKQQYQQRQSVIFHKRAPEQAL

[10] = target: Glutamate receptor ionotropic, NMDA 1 (Rattus norvegicus) (UniProt P35439); test: NMDAGLSI/RA Eurofins SafetyScreen44 (BI); details: Compound concentration 10.0 uM
[11] = target: T1, Alpha-1A adrenergic receptor (Homo sapiens) (UniProt P35348); details: Compound concentration 10.0 uM
T1 sequence (whole entry): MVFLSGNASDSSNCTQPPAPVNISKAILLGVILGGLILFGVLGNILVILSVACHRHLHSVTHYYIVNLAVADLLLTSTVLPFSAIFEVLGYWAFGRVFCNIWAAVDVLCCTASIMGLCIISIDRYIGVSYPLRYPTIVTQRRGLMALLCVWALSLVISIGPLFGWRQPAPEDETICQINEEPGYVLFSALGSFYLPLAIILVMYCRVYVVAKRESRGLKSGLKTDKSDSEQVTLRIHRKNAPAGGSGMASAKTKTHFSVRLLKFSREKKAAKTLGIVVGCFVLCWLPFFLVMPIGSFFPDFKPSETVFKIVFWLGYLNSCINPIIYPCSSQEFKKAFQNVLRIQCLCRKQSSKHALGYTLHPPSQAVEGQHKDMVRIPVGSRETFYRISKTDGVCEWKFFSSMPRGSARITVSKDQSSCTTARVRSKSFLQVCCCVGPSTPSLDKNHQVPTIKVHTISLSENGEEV

[12] = target: T2, Alpha-2B adrenergic receptor (Homo sapiens) (UniProt P18089); test: ALPHA2B/H Eurofins SafetyScreen44 (BI)
T2 sequence (whole entry): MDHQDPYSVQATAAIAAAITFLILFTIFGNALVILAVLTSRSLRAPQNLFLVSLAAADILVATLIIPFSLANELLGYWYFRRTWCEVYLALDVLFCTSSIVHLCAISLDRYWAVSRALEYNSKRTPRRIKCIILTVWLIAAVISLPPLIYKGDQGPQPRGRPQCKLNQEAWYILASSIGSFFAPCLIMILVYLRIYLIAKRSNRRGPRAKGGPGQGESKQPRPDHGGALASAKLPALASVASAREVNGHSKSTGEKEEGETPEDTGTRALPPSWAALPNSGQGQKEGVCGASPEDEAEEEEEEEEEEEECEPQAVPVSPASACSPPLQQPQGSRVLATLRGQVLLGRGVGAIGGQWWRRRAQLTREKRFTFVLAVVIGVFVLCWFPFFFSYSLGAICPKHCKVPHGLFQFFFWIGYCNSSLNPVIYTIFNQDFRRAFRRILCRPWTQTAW

[13] = target: Mu-type opioid receptor (Homo sapiens) (UniProt P35372); test: MU/HU Eurofins SafetyScreen44 (BI); details: Compound concentration 10.0 uM
Chain of Mu-type opioid receptor (Homo sapiens) (P35372 whole entry): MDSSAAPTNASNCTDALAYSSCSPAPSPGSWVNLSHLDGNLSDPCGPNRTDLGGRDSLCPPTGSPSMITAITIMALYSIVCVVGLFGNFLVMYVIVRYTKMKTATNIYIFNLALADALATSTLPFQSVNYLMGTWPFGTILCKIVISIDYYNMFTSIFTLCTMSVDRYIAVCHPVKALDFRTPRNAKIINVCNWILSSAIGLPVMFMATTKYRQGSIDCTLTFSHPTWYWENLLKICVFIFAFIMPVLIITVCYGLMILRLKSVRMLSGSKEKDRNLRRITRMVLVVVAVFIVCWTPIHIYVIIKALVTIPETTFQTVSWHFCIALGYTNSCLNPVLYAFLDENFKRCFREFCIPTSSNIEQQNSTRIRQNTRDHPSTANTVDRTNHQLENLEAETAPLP

[14] = target: Glutamate receptor ionotropic, NMDA 2A (Rattus norvegicus) (UniProt Q00959); test: NMDAPHSI/R Eurofins SafetyScreen44 (BI); details: Compound concentration 10.0 uM
[15] = target: Peroxisome proliferator-activated receptor alpha (Homo sapiens) (UniProt Q07869); test: PPAR_ALPHA Eurofins SafetyScreen44 (BI); details: filed as agonist, Compound concentration 10.0 uM
Chain of Peroxisome proliferator-activated receptor alpha (Homo sapiens) (Q07869 whole entry): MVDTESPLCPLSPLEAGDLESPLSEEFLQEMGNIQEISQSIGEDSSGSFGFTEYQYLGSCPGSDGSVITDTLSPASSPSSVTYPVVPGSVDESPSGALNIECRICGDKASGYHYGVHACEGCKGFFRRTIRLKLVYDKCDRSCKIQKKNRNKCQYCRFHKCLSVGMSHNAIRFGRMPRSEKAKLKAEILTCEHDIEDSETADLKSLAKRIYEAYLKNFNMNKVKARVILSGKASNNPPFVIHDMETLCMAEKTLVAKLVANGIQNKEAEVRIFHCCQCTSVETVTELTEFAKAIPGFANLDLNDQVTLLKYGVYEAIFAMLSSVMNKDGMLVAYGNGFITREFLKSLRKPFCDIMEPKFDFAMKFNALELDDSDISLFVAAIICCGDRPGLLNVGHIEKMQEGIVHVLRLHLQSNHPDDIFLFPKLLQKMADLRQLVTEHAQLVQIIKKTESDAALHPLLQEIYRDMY

[16] = target: T3, Alpha-2A adrenergic receptor (Homo sapiens) (UniProt P08913); test: ALPHA2A/H Eurofins SafetyScreen44 (BI)
T3 sequence (whole entry): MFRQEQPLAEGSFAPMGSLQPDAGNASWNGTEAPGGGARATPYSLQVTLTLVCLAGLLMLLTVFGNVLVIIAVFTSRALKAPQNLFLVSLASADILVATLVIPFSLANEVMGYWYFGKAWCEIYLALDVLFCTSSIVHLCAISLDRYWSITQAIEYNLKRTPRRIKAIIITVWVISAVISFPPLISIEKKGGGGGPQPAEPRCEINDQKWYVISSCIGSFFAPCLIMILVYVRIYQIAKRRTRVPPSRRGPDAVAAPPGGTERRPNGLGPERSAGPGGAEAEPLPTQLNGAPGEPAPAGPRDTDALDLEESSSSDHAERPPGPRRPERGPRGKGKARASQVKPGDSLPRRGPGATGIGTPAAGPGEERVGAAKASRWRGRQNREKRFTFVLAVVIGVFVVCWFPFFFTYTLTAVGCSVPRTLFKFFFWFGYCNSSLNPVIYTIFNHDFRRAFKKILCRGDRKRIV

[17] = target: Interleukin-1 beta (Mus musculus) (UniProt P10749); test: IL-1 Eurofins SafetyScreen44 (BI); details: Compound concentration 10.0 uM
Chain of Interleukin-1 beta (Mus musculus) (P10749 118-269 limits assumed): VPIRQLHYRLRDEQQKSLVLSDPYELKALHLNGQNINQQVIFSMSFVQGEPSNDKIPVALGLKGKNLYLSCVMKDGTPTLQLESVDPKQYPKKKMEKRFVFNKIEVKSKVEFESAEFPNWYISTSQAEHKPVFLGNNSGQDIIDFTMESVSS

[18] = target: 5-hydroxytryptamine receptor 2B (Homo sapiens) (UniProt P41595); details: Compound concentration 10.0 uM
Chain of 5-hydroxytryptamine receptor 2B (Homo sapiens) (P41595 whole entry): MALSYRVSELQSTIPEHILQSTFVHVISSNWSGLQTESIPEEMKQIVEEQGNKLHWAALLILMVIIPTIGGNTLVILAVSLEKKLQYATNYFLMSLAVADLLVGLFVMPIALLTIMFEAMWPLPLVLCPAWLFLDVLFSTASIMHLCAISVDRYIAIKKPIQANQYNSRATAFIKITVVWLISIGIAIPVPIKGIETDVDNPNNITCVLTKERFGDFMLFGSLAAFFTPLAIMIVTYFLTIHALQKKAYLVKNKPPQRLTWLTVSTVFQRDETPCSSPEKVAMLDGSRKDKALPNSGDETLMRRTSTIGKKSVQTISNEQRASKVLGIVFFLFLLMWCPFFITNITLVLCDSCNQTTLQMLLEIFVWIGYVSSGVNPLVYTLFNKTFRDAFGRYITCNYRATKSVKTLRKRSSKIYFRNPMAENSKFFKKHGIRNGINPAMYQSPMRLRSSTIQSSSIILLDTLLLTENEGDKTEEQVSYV

[19] = target: Gamma-aminobutyric acid receptor subunit alpha-1 (Rattus norvegicus) (UniProt P62813); test: GABAACENTR Eurofins SafetyScreen44 (BI); details: Compound concentration 10.0 uM
Chain of Gamma-aminobutyric acid receptor subunit alpha-1 (Rattus norvegicus) (P62813 whole entry): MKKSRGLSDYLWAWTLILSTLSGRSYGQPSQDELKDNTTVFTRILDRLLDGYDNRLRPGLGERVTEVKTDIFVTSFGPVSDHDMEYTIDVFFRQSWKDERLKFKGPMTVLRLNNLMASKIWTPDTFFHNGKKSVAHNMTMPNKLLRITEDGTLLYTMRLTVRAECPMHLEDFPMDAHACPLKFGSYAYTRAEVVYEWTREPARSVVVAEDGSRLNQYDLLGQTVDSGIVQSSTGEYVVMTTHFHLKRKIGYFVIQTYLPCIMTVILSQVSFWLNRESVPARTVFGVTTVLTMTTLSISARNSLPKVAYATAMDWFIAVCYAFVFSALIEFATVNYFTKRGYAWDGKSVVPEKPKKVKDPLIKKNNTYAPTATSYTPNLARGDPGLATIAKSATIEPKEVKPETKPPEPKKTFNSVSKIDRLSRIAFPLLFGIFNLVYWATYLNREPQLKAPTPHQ

Chain of hERG (KCNH2) (Q12809 whole entry): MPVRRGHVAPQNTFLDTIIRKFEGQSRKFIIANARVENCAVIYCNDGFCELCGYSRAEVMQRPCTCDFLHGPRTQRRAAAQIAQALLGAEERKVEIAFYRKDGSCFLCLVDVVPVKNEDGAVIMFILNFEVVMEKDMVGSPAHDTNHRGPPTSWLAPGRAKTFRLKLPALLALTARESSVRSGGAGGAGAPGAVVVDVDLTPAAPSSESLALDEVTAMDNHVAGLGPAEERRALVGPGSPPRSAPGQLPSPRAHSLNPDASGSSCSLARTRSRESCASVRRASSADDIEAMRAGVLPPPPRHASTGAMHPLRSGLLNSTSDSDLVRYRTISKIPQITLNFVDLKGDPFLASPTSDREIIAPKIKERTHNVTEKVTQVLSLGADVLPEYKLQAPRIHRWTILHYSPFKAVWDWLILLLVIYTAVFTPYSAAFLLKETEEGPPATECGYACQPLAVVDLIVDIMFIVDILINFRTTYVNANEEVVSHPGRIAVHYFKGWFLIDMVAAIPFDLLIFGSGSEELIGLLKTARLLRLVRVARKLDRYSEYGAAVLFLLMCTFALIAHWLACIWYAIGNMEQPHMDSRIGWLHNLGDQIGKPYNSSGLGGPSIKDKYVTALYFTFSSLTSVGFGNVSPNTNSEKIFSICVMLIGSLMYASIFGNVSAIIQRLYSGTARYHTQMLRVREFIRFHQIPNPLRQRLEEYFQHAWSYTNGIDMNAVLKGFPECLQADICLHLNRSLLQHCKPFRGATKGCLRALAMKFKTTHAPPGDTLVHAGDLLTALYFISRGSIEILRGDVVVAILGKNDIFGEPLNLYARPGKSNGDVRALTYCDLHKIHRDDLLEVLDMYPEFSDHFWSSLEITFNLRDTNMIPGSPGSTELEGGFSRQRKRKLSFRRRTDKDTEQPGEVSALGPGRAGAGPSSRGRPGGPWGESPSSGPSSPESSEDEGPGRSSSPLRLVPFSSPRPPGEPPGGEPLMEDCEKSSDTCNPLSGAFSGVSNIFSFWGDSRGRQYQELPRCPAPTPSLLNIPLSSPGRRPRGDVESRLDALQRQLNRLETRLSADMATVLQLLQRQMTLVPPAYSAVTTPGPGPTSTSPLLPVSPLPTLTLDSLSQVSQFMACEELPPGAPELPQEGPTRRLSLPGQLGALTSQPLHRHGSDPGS

COCCCS(=O)(=O)c1cc(C)c(-c2ccc(F)c3c2CC[C@H]3Oc2ccc3c(c2)OC[C@H]3CC(=O)O)c(C)c1
residual activity [1]: 102% | activity at 10 µM (hERG (KCNH2)): 93% (not active) | activity at 10 µM [2]: 90% (not active) | residual activity [3]: 102% | residual activity [4]: 108% | residual activity [5]: 88%

Cc1cc(OCCC(C)(C)O)cc(C)c1-c1ccc(F)c2c1CC[C@H]2Oc1ccc2c(c1)OC[C@H]2CC(=O)O
residual activity [6]: 122% | residual activity [7]: 74% | residual activity [8]: 99% | residual activity ([9]; Compound concentration 0.3 uM): 83% | residual activity ([9]; Compound concentration 1.0 uM): 75% | residual activity ([9]; Compound concentration 3.0 uM): 60% | residual activity ([9]; Compound concentration 10.0 uM): 54% | residual activity ([9]; Compound concentration 30.0 uM): 28% | residual activity [10]: 86% | inhibition [11]: -8.92% | residual activity ([12]; Compound concentration 0.3 uM): 97% | residual activity ([12]; Compound concentration 1.0 uM): 98% | residual activity ([12]; Compound concentration 3.0 uM): 103% | residual activity ([12]; Compound concentration 10.0 uM): 90% | residual activity ([12]; Compound concentration 30.0 uM): 75% | residual activity [13]: 76% | residual activity [14]: 103% | residual activity [15]: 119% | residual activity ([16]; Compound concentration 0.1 uM): 93% | residual activity ([16]; Compound concentration 0.3 uM): 90% | residual activity ([16]; Compound concentration 1.0 uM): 83% | residual activity ([16]; Compound concentration 3.0 uM): 64% | residual activity ([16]; Compound concentration 10.0 uM): 5.5% | residual activity [17]: 100% | inhibition [18]: 3.41% | residual activity [19]: 83%
